According to ChEMBL document CHEMBL1800011, “Anti-leishmanial activity of disubstituted purines and related pyrazolo[4,3-d]pyrimidines” (Bioorg Med Chem Lett, 2011):

Tests used:
[1] = tested on: Leishmania donovani; test: Antileishmanial activity against axenic amastigotes of Leishmania donovani MHOM/SD/1962/1S-Cl2d at 30 uM after 24 hrs by alamar Blue viability assay; type: functional
[2] = tested on: Leishmania donovani; test: Inhibition of Leishmania donovani CRK3/CYC6 activity expressed in Escherichia coli using 15 uM ATP at 30 uM
[3] = Inhibition of Leishmania donovani CRK3/CYC6 activity expressed in Escherichia coli using 15 uM ATP
[4] = tested on: Leishmania donovani; test: Antileishmanial activity against axenic amastigotes of Leishmania donovani MHOM/SD/1962/1S-Cl2d after 24 hrs by alamar Blue viability assay; type: functional, organism-based

With `COc1ccc(CNc2ncnc3c2ncn3C(C)C)cc1OC` as the compound, how does the inhibition at 30 µM [1] read?
The inhibition at 30 µM was 1.9%.

What about the inhibition [2] of the same compound?
Its inhibition is -2.3%.

And the IC50 [3]?
Its IC50 is greater than 100 µM.

For `CC(C)n1cnc2c(NCc3ccccc3N)ncnc21`, which inhibition at 30 µM [1] is on record?
Its inhibition at 30 µM is 6.6%.

And the inhibition [2]?
Its inhibition is 11%.

And the IC50 [3]?
The IC50 was greater than 100 µM.

For `CC(C)n1cnc2c(Nc3ccc(F)cc3)ncnc21`, which inhibition at 30 µM [1] is on record?
The inhibition at 30 µM was 21.5%.

And the inhibition [2]?
Its inhibition is 53.3%.

What about the IC50 [3] of the same compound?
The IC50 was 22.8 µM.

Which results are given for `CC(C)c1n[nH]c2c(Nc3ccccc3Br)ncnc12`?
inhibition at 30 µM [1]: 40.7%; EC50 [4]: 18.7 µM; inhibition [2]: 35.6%; IC50 [3]: 16.1 µM

With `CCCCCNc1ncnc2c(C(C)C)n[nH]c12` as the compound, how does the inhibition at 30 µM [1] read?
The inhibition at 30 µM was 27.3%.

And the EC50 [4]?
Its EC50 is 54.7 µM.

What about the inhibition [2] of the same compound?
The inhibition was 46.5%.

And the IC50 [3]?
The IC50 was greater than 100 µM.

Which inhibition at 30 µM [1] does the source give for `CC(C)c1n[nH]c2c(NCc3ccccc3O)ncnc12` here?
Its inhibition at 30 µM is 87.4%.

And the EC50 [4]?
Its EC50 is 35.7 µM.

What about the inhibition [2] of the same compound?
The inhibition was 68%.

And the IC50 [3]?
The IC50 was 11.9 µM.

With `CC(C)n1cnc2c(NCc3ccco3)ncnc21` as the compound, how does the inhibition at 30 µM [1] read?
The inhibition at 30 µM was 14.5%.

What about the inhibition [2] of the same compound?
The inhibition was 3.5%.

And the IC50 [3]?
The IC50 was greater than 100 µM.

With `COc1cc(CNc2ncnc3c2ncn3C(C)C)ccc1O` as the compound, how does the inhibition at 30 µM [1] read?
The inhibition at 30 µM was 9.5%.

And the inhibition [2]?
Its inhibition is 11.9%.

And the IC50 [3]?
Its IC50 is greater than 100 µM.

What does the source list for `CC(C)c1n[nH]c2c(NC3CCCCC3N)ncnc12` (stereo unspecified)?
inhibition at 30 µM [1]: 15.8%; EC50 [4]: > 100 µM; inhibition [2]: 2.4%; IC50 [3]: > 100 µM

For `CC(C)c1n[nH]c2c(Nc3ccc(F)cc3)ncnc12`, which inhibition at 30 µM [1] is on record?
Its inhibition at 30 µM is 75.8%.

What about the EC50 [4] of the same compound?
The EC50 was 11.6 µM.

What about the inhibition [2] of the same compound?
The inhibition was 78.8%.

What about the IC50 [3] of the same compound?
Its IC50 is 6.8 µM.

With `COc1ccc(CNc2ncnc3c(C(C)C)n[nH]c23)cc1OC` as the compound, how does the inhibition at 30 µM [1] read?
Its inhibition at 30 µM is 8.4%.

And the EC50 [4]?
Its EC50 is greater than 100 µM.

What about the inhibition [2] of the same compound?
Its inhibition is 19.9%.

What about the IC50 [3] of the same compound?
Its IC50 is greater than 100 µM.

Which inhibition at 30 µM [1] does the source give for `COc1ccc(CNc2ncnc3c2ncn3C(C)C)cc1` here?
Its inhibition at 30 µM is 15.1%.

What about the inhibition [2] of the same compound?
Its inhibition is -6.9%.

And the IC50 [3]?
Its IC50 is greater than 100 µM.

Which inhibition at 30 µM [1] does the source give for `COc1ccc(CNc2ncnc3c(C(C)C)n[nH]c23)cc1O` here?
The inhibition at 30 µM was 34.3%.

And the EC50 [4]?
The EC50 was 94 µM.

What about the inhibition [2] of the same compound?
The inhibition was 46.8%.

What about the IC50 [3] of the same compound?
The IC50 was 28.2 µM.

For `COc1ccc(CNc2ncnc3c2ncn3C(C)C)cc1O`, which inhibition at 30 µM [1] is on record?
The inhibition at 30 µM was 8.8%.

And the inhibition [2]?
Its inhibition is 11.2%.

And the IC50 [3]?
Its IC50 is greater than 100 µM.

What does the source list for `CC(C)c1n[nH]c2c(NCc3ccccc3)ncnc12`?
inhibition at 30 µM [1]: 29.6%; EC50 [4]: 68.6 µM; inhibition [2]: 24.5%; IC50 [3]: 54.2 µM

Which results are given for `CC(C)n1cnc2c(Nc3cccc(F)c3)ncnc21`?
inhibition at 30 µM [1]: 16.5%; inhibition [2]: 30.4%; IC50 [3]: 49.9 µM

With `CC(C)c1n[nH]c2c(Nc3cccc(F)c3)ncnc12` as the compound, how does the inhibition at 30 µM [1] read?
The inhibition at 30 µM was 66.6%.

And the EC50 [4]?
Its EC50 is 23.2 µM.

What about the inhibition [2] of the same compound?
Its inhibition is 70.4%.

What about the IC50 [3] of the same compound?
Its IC50 is 14.6 µM.

For `COc1ccc(CNc2ncnc3c(C(C)C)n[nH]c23)cc1`, which inhibition at 30 µM [1] is on record?
Its inhibition at 30 µM is 31.5%.

And the EC50 [4]?
Its EC50 is 83 µM.

What about the inhibition [2] of the same compound?
Its inhibition is 36%.

What about the IC50 [3] of the same compound?
The IC50 was 75.5 µM.

Which inhibition at 30 µM [1] does the source give for `CC(C)c1n[nH]c2c(NC3CCC(N)CC3)ncnc12` (stereo unspecified) here?
The inhibition at 30 µM was 3.3%.

What about the EC50 [4] of the same compound?
Its EC50 is greater than 100 µM.

And the inhibition [2]?
The inhibition was 35%.

And the IC50 [3]?
Its IC50 is greater than 100 µM.

Which inhibition at 30 µM [1] does the source give for `CCCCCNc1ncnc2c1ncn2C(C)C` here?
The inhibition at 30 µM was 22.6%.

And the inhibition [2]?
The inhibition was 14.8%.

What about the IC50 [3] of the same compound?
Its IC50 is greater than 100 µM.

Which inhibition at 30 µM [1] does the source give for `CC(C)=CCNc1ncnc2c1ncn2C(C)C` here?
The inhibition at 30 µM was 0.04%.

What about the inhibition [2] of the same compound?
Its inhibition is 3.2%.

What about the IC50 [3] of the same compound?
The IC50 was greater than 100 µM.

For `CC(C)n1cnc2c(Nc3cccc(Cl)c3)ncnc21`, which inhibition at 30 µM [1] is on record?
The inhibition at 30 µM was 35.1%.

And the inhibition [2]?
The inhibition was 22.3%.

And the IC50 [3]?
Its IC50 is greater than 100 µM.

Which results are given for `CC(C)n1cnc2c(NC34CC5CC(CC(C5)C3)C4)ncnc21`?
inhibition at 30 µM [1]: 72%; inhibition [2]: 66.1%; IC50 [3]: 12.2 µM

For `CC(C)n1cnc2c(Nc3ccccc3Br)ncnc21`, which inhibition at 30 µM [1] is on record?
Its inhibition at 30 µM is 26.2%.

What about the inhibition [2] of the same compound?
The inhibition was 1.8%.

And the IC50 [3]?
Its IC50 is greater than 100 µM.

Which results are given for `CC(C)c1n[nH]c2c(NC34CC5CC(CC(C5)C3)C4)ncnc12`?
inhibition at 30 µM [1]: 73.2%; EC50 [4]: 1.22 µM; inhibition [2]: 93.8%; IC50 [3]: 1.82 µM

With `CC(C)=CCNc1ncnc2c(C(C)C)n[nH]c12` as the compound, how does the inhibition at 30 µM [1] read?
Its inhibition at 30 µM is 45.5%.

And the EC50 [4]?
Its EC50 is 85 µM.

What about the inhibition [2] of the same compound?
Its inhibition is 32.5%.

And the IC50 [3]?
The IC50 was 57.2 µM.

With `CC(C)n1cnc2c(NC3CCCCC3N)ncnc21` (stereo unspecified) as the compound, how does the inhibition at 30 µM [1] read?
The inhibition at 30 µM was 4.5%.

And the inhibition [2]?
Its inhibition is -5.4%.

What about the IC50 [3] of the same compound?
Its IC50 is greater than 100 µM.

Which results are given for `CC(C)n1cnc2c(NCc3cccc(O)c3)ncnc21`?
inhibition at 30 µM [1]: 6.5%; inhibition [2]: 8.8%; IC50 [3]: > 100 µM

With `CC(C)c1n[nH]c2c(Nc3cccc(Cl)c3)ncnc12` as the compound, how does the inhibition at 30 µM [1] read?
Its inhibition at 30 µM is 73.3%.

What about the EC50 [4] of the same compound?
The EC50 was 12.4 µM.

What about the inhibition [2] of the same compound?
The inhibition was 81.3%.

And the IC50 [3]?
Its IC50 is 9.86 µM.

For `CC(C)n1cnc2c(NCc3ccccc3)ncnc21`, which inhibition at 30 µM [1] is on record?
Its inhibition at 30 µM is 19.9%.

What about the inhibition [2] of the same compound?
The inhibition was 18.5%.

And the IC50 [3]?
The IC50 was greater than 100 µM.

For `CC(C)c1n[nH]c2c(NCc3ccco3)ncnc12`, which inhibition at 30 µM [1] is on record?
Its inhibition at 30 µM is 16.6%.

And the EC50 [4]?
The EC50 was greater than 100 µM.

And the inhibition [2]?
The inhibition was 28.5%.

What about the IC50 [3] of the same compound?
Its IC50 is greater than 100 µM.

With `COc1cc(CNc2ncnc3c(C(C)C)n[nH]c23)ccc1O` as the compound, how does the inhibition at 30 µM [1] read?
Its inhibition at 30 µM is 10.4%.

And the EC50 [4]?
Its EC50 is greater than 100 µM.

And the inhibition [2]?
The inhibition was 41%.

What about the IC50 [3] of the same compound?
The IC50 was 100 µM.

Which results are given for `CC(C)n1cnc2c(NC3CCC(N)CC3)ncnc21` (stereo unspecified)?
inhibition at 30 µM [1]: 1%; inhibition [2]: 26.4%; IC50 [3]: > 100 µM

For `CC(C)n1cnc2c(NCc3ccccc3O)ncnc21`, which inhibition at 30 µM [1] is on record?
The inhibition at 30 µM was 11.7%.

And the inhibition [2]?
The inhibition was -2.8%.

And the IC50 [3]?
Its IC50 is greater than 100 µM.

Which inhibition at 30 µM [1] does the source give for `CC(C)c1n[nH]c2c(NCc3cccc(O)c3)ncnc12` here?
Its inhibition at 30 µM is 25.4%.

And the EC50 [4]?
Its EC50 is greater than 100 µM.

And the inhibition [2]?
The inhibition was 35.8%.

And the IC50 [3]?
Its IC50 is 83.2 µM.

Which inhibition at 30 µM [1] does the source give for `CC(C)c1n[nH]c2c(NCc3ccccc3N)ncnc12` here?
The inhibition at 30 µM was 41.3%.

And the EC50 [4]?
The EC50 was greater than 100 µM.

And the inhibition [2]?
Its inhibition is 42.3%.

And the IC50 [3]?
Its IC50 is 58.6 µM.
